These results are taken from US8436020B2, “Processes for the preparation of piperidinic derivatives and pharmaceutic compositions containing the same” (priority 2004, dated 2013).

The format of series [1] is in vivo, mice.
The target in series [2] is cholinesterase in homogenized rat brain (Rattus norvegicus, UniProt P37136). The following applies: for pIC50: rat brain homogenate. On the procedure:
In all experiments, cholinesterase-independent substrate hydrolysis (non specific) was determined by the inclusion of an experimental group treated with THA 20 μM. Appropriate tissues and reagents (em branco) were also included. Reaction velocities were determined in 3 or 4 repetitions by condition; mean values were calculated and expressed as percentages of relative activity in respect to control (solvent), after subtraction of the non-specific hydrolysis rate. The substances were tested in at least five different concentrations. From the resulting inhibition curve, values in the ranges […] 20%-80% were considered, with concentration limited to 500 μM. The IC50, based in a single-site model, was determined via linear regression.

For series [3], the system named is amnesia induced by scopolamine. As to the kind of experiment: Amnesia induced by scopolamine in the Morris water maze. In kind it is in vivo, Wistar rats. As to conditions: rats, scopolamine 1 mg/kg, 4 days test. The protocol:
A total of 39 Wistar rats (females—±200 g) were used.
After 30 minutes of intraperitoneal second administration (saline or scopolamine), the animals were challenged to localize an underwater platform in a round recipient containing opaque water (water maze) and the escape latency (in seconds) was computed. […] Tests were conducted twice a day, during 4 consecutive days.
When treated with scopolamine 30 minutes before the challenge, the animals could not learn the task and the escape latency approaches maximum values (150 s) in the fourth day of the test.

Series [4] has as its system amnesia induced by scopolamine. As to the kind of experiment: Amnesia induced by scopolamine in the inhibitory avoidance assay. In kind it is in vivo, Swiss mice. The following applies: mice. The text has this:
A total of 120 adult male (25-30 g) Swiss mice were used. The animals were submitted to the inhibitory avoidance assay, which consists of a box with a base made of a grid connected to an electrostimulator (0.6 mA/3 s), and containing a wood platform (3 cm^3). Mice were put over this platform; being computed the latency (in seconds) until the animals put the four paws over the grid. In the first day of the test (“training”), animals would receive an adverse electrical stimulus (0.6 mA/3 s) whenever they stepped down to the grid (step down latency—SDL). At this stage, animals that would stay more than 15 seconds over the platform were discarded. Twenty-four hours later, the animals were re-introduced over the platform and the SDL computed (“retention”).

Series [5] can be described thus: Cholinergic side effects (diarrhea) 30 minutes after administration, rats. In kind it is in vivo. The text has this: Results from this assay can be seen in FIGS. 8-9.
The nature of series [6]: Water solubility of the chlorhydrate derivatives.
Another series addresses BuChE (Homo sapiens, UniProt P06276). The following applies: arisugacines and cyclopenine: no BuChE inhibition at this multiple; cyclophostin: BuChE inhibited at this multiple; cited from earlier work.
In series [7] the target is T1, AChE (Homo sapiens, UniProt P22303). The following applies: read-out: IC50, AChE; cited from earlier work.
T1 sequence (P22303 32-614): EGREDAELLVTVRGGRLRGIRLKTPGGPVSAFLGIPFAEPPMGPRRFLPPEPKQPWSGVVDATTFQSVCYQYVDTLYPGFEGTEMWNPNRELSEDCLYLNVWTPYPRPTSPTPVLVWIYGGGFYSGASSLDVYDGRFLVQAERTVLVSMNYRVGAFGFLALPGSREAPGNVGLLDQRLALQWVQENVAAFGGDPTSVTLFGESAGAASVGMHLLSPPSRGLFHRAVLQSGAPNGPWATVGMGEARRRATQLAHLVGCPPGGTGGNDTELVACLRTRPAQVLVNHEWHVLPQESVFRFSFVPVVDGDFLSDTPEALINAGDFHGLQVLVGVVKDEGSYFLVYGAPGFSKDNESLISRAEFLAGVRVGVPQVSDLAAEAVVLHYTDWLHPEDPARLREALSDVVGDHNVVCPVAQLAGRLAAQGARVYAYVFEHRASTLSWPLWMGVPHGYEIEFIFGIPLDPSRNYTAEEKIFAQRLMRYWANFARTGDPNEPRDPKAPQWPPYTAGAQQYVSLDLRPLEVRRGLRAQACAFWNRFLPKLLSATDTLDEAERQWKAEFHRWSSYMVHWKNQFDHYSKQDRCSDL
For series [8], the target named is T1, AChE. The following applies: cited from earlier work; for pIC50: read-out: IC50 AChE, tacrine as positive control.
For series [9], the target named is butyrylcholinesterase (BuChE) (Homo sapiens, UniProt P06276). As to conditions: read-out: IC50 BuChE; cited from earlier work.
Sequence of butyrylcholinesterase (BuChE) (P06276 29-602): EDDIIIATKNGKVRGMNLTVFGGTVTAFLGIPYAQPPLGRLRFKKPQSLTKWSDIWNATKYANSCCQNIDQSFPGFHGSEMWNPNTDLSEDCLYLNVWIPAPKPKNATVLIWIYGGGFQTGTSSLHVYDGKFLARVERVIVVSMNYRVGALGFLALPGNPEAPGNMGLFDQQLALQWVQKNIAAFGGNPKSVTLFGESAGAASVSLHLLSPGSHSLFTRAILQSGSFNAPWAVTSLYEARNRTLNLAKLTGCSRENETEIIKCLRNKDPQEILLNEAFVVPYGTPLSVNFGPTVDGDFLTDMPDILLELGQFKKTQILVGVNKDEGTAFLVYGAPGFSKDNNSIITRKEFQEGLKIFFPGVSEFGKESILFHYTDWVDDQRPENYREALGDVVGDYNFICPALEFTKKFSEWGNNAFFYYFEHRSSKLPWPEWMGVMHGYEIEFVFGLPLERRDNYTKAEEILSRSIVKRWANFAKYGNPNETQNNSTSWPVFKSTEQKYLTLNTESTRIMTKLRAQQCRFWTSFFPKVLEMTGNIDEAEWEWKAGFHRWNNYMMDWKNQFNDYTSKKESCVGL
Series [10] concerns the target T1, AChE. As to conditions: cited from earlier work.
For series [11], the target named is T1, AChE. The following applies: read-out: IC50, AChE activity; cited from earlier work.
Series [12] concerns the target T1, AChE. As to conditions: read-out: IC50, anticholinesterasic activity; cited from earlier work.
[13] abbreviates: read-out: Experimental IC50, cerebral cholinesterase inhibition, single independent experiment (one animal), acetylthiocholine 1 mM.
[14] abbreviates: read-out: Mean IC50, cerebral cholinesterase inhibition, mean of N independent experiments.

Each structure is given as a SMILES string. pIC50: −log10 of the molar value. Where “and” joins values, the source holds several entries; their conditions need not be identical. Equal values may be shown once. Entries after “also recorded” stand apart in the source; their conditions may differ. Read-outs that look alike come from different tables or passages of the source.

Sequence of cholinesterase in homogenized rat brain (P37136 32-614): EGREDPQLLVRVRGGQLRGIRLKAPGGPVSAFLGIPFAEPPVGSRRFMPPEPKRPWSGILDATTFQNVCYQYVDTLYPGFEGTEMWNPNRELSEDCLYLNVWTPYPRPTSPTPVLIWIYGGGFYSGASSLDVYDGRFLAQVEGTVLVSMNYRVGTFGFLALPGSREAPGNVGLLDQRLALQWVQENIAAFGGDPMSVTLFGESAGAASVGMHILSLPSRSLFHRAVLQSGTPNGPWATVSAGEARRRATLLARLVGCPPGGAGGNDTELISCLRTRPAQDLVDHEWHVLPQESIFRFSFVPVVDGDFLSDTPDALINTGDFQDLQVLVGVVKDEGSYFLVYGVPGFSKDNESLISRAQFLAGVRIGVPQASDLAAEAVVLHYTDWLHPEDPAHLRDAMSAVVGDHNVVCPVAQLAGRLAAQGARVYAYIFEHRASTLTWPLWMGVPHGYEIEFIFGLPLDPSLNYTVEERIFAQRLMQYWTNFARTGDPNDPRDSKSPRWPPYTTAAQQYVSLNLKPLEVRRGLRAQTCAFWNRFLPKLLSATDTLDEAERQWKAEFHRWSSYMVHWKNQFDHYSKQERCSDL
Sequence of BuChE (P06276 29-602): as the sequence (P06276 29-602) above

On to `CC(=O)CCCCCCCCCCCC[C@H]1CC[C@@H](OC(C)=O)[C@@H](C)N1.Cl` [LASSBio-767, 2-(R)-methyl-3-(R)—O-acetyl-6-(S)-(tetradecyl-13′-one)-piperidine chlorhydrate], for which the “Cholinergic side effects and motor activity” value in series [1] (10 mg/kg) is “no cholinergic side effects and no interference in the motor activity”. Further, the “AChE inhibitory capacity ex vivo” value in [2] is “remarkable anticholinesterasic activity”. Also, the pIC50 was 5.32 and 5.35 in series [2] (setting [13]); 5.33 in series [2] (setting [14]). The “Reversion of amnesia induced by scopolamine, escape latency in water maze” value (shortened to “Reversion of amnesia induced … in water maze”) in [3] (1 mg/kg) is reported as “superior effect in relation to tacrine in the reversion of the induced amnesia by scopolamine”; in series [3] (10 mg/kg), “also observed”. For the same compound, in series [4] (1 and 10 mg/kg, scopolamine 1 mg/kg), the “Reversion of amnesia induced by scopolamine, step down latency” value (“Reversion … step down latency” below) is reported as “do not differ from the ones treated only with scopolamine; also recorded: did not present any effect on the amnesia induced by scopolamine”. Besides, the Occurrence of diarrhea entry in series [5] is reported as “Only animals treated with tacrine presented diarrhea”. In addition, the Solubility in water result in [6] is on record as “water-soluble”.

In the case of `CC(=O)CCCCCCCCCCCC[C@H]1CC[C@@H](O)[C@@H](C)N1.Cl` [LASSBio-768, Espectaline Chlorhydrate], the “AChE inhibitory capacity ex vivo” value in series [2] is recorded as “remarkable anticholinesterasic activity”. Also, the pIC50 in series [2] (setting [13]) was 3.71 and 3.56; in [2] (setting [14]), 3.63. In series [6], the Solubility in water entry is recorded as “water-soluble”.

Take `CC(=O)O[C@@H]1CC[C@H](CCCCCCCCCCCCC(C)O)N[C@@H]1C` (stereo partly drawn) [LASSBio-783, (2R,3R,6S)-3-acetoxy-6-(13-hydroxy-tetradecyl-2-methyl)-piperidine chlorhydrate]: the pIC50 in [2] (setting [13]) was 3.48 and 3.15 and 3.62; in series [2] (setting [14]), 3.37.

On to `CC(=O)CCCCCCCCCCCC[C@H]1CC[C@@H](OC(=O)OC(C)(C)C)[C@@H](C)N1.Cl` [LASSBio-822, 2-(R)-methyl-3-(R)—O-ter-butoxycarbonyl-6-(S)-(tetradecyl-13′-one)-piperidine chlorhydrate], for which the “AChE inhibitory capacity ex vivo” value in [2] is on record as “remarkable anticholinesterasic activity”. Further, the negative logarithm of the IC50 (pIC50) in [2] (setting [13]) was 5.04 and 4.79 and 4.70; in series [2] (setting [14]), 4.82. For the same compound, the “Reversion of amnesia induced … in water maze” value in [3] (1 mg/kg) is given as “not capable of antagonize the amnesia induced by scopolamine”. Also, the “Reversion … step down latency” value in series [4] (1 and 3 mg/kg, scopolamine 1 mg/kg) was “significant partial reversion of the amnesia induced by scopolamine; also recorded: capable of a significant reversion of the amnesia induced by scopolamine”. Besides, in series [6], the Solubility in water result is “water-soluble”.

For the compound `Nc1c2c(nc3ccccc13)CCCC2` [Tacrine, tacrine, reference compound], in [1] (10 mg/kg I.P., mice), the “Mice with diarrhea and urination” value came to 70%; the “Other side effects observed” value is “hypothermia and diminished motor activity”. In addition, the “Cholinergic side effect parameters” value in series [1] (concentrations superior to 30 mg/kg, mice) was “all checked parameters are altered”. The “Reversion of amnesia induced … in water maze” value in series [3] (1 mg/kg) is reported as “antagonize the induced amnesia by scopolamine, a significant effect in the fourth day of the study”. In addition, the “Reversion … step down latency” value in [4] (5.6 mg/kg) is recorded as “complete reversion of the amnesia induced by scopolamine; also recorded: totally reversed the effect of scopolamine”. This compound also returned an Animals with diarrhea in [5] (1 mg/kg) of 100%.

On to `CN1C(=O)c2ccccc2NC(=O)[C@]12O[C@@H]2c1ccccc1` [cyclopenine], for which, at BuChE, the “Concentration tested on BuChE as a multiple of the AChE IC50 (selectivity)” value is on record as > 2,000 times. For the same compound, on AChE [7], the negative-log IC50 (pIC50) was 5.69.

Turning to `CO[P@]1(=O)OC[C@H]2COC(=O)C2=C(C)O1` [cyclophostin], the “Concentration tested on BuChE as a multiple of the AChE IC50 (selectivity)” value at BuChE is listed as 35 times. The pIC50 at AChE [7] was 8.89.

Consider `CC[C@H](C)[C@H]1NC(=O)c2c1n(C)c1ccccc1c2=O` [quinolactacin A1], for which the pIC50 on AChE [8] is 3.55.

As for `CC[C@H](C)[C@@H]1NC(=O)c2c1n(C)c1ccccc1c2=O` [quinolactacin A2], the pIC50 in series [9] was 3.19; at AChE [8] it was 4.70. In addition, the “Inhibitory AChE activity relative to diastereoisomer A1” value on AChE [8] is reported as 14 times.

As for `COc1cc(-c2cc3c(c(=O)o2)C[C@]2(O)[C@@]4(C)C(=O)C=CC(C)(C)[C@]4(O)CC[C@@]2(C)O3)cc(OC)c1OC` [territrem B], the pIC50 at AChE [7] is 8.12. In addition, the “Potency relative to neostigmine in AChE inhibition” value on AChE [10] is “approximately 20 times”.

As for `COc1cc(-c2cc3c(c(=O)o2)C[C@]2(O)[C@@]4(C)C(=O)C=CC(C)(C)[C@]4(O)CC[C@@]2(C)O3)cc(OC)c1O` [territrem C], the negative logarithm of the IC50 (pIC50) at AChE [7] was 8.17.

With `C/C(=C\CNc1ncnc2nc[nH]c12)CO` [zeatine], the negative logarithm of the IC50 (pIC50) on AChE [11] is 3.96.

On to `C=C1CC[C@H]2C(C)(C)[C@@H](O)CC[C@]2(C)[C@H]1CC[C@H]1C(=C)CC[C@H]2C(C)(C)[C@@H](O)CC[C@]12C` [α-onocerine, α-onocerin], for which, on AChE [12], the pIC50 was 5.28.

In general, pIC50 refers to the IC50 on a negative log10 scale, so that one unit is a factor of ten.
